{"source": "paper PMC12067145", "about": "(ACS Medicinal Chemistry Letters, 2025)", "key": {"TREK-1": {"target": "TREK-1 (Mus musculus, UniProt P97438)", "experiment": "Mouse manual patch clamp (MPC)", "assay_type": "cell-based"}, "Aqueous solubility": {"experiment": "Aqueous solubility", "assay_type": "physicochemical"}, "[1]": {"experiment": "Plasma protein binding (human)", "assay_type": "in vitro ADME", "conditions": "pH 7.4, read-out: PPB human (converted)", "experimental": "(§1) 0.3% DMSO - ΔRatio of 1 µM control compound)x100\n(§2) In vitro Plasma protein binding and Brain homogenate binding: Determination of fraction unbound (f u) in plasma was conducted in vitro via equilibrium dialysis using HTDialysis (HTD) membrane plates. The top half of the plate was filled with 100 uL of Dubelco’s Phosphate Buffered Saline, pH 7.4 (DPBS). Compounds were diluted into plasma from each species (5 µM final concentration), which was aliquoted in triplicate to the ‘bottom half’ of the prepared HTD plate wells. The HTD plate was sealed and incubated for 6 hours at 37 °C. Following incubation, each well (both top and bottom halves) were transferred (20 µL) to the corresponding wells of a 96-shallow-well (V-bottom) plate. The daughter plates were then matrix-matched (DPBS side wells received equal volume of plasma, and plasma side wells received equal volume of DPBS), and extraction solution (120 µL; acetonitrile containing 50 nM carbamazepine as IS) was added to all wells of both daughter plates to precipitate protein and extract test article. The plates were then sealed and centrifuged (3500 rcf) for 10 minutes at ambient temperature. Supernatant (60 µL) from each well of the daughter plates was then transferred to the corresponding wells of new daughter plates (96-shallow-well, V bottom) containing water (Milli-Q, 60 µL/well), and the plates were sealed in preparation for LC-MS/MS analysis (see LC-MS/MS analysis method below).\n(§3) The unbound fraction (f u) was calculated following the equation below, and mean values for each species were calculated from 3 replicates. A similar approach was used to determine the degree of brain homogenate binding, which employed the same methodology and procedure with the following modifications: 1) a final compound concentration of 1 μM was used, 2) naïve rat brains were homogenized in DPBS (1:3 composition of brain: DPBS, w/w) using a Mini-Bead Beater™ machine in order to obtain brain homogenate, which was then treated in the same manner as the plasma samples in the previously described plasma protein binding assay. Fraction unbound for both plasma and brain samples was determined using Equation 4."}, "Adenosine A3": {"target": "T1, Adenosine A3 (Homo sapiens, UniProt P0DMS8)", "T1 construct": "Eurofins", "T1 sequence (P0DMS8 whole entry)": "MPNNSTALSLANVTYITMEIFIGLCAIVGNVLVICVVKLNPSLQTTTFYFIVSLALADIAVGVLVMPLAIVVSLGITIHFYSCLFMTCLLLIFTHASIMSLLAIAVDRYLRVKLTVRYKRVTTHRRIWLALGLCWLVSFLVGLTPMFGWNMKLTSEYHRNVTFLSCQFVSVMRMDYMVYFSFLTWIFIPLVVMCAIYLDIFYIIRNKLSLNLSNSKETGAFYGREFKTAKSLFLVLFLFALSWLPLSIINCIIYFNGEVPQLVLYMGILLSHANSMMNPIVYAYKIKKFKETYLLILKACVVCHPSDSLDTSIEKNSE", "experiment": "Eurofins lead profiling screen (radioligand binding)"}, "Sodium Channel, Site 2": {"target": "Sodium Channel, Site 2", "experiment": "Eurofins lead profiling screen (radioligand binding)", "set-up": "species or system Rat"}, "Nav1.5": {"target": "Nav1.5 (Homo sapiens, UniProt Q14524)", "experiment": "Cardiac ion channel MPC selectivity panel", "assay_type": "cell-based"}, "HNC4": {"target": "HNC4 (Homo sapiens, UniProt Q9Y3Q4)", "experiment": "Cardiac ion channel MPC selectivity panel", "assay_type": "cell-based"}, "[2]": {"experiment": "Plasma protein binding (mouse)", "assay_type": "in vitro ADME", "conditions": "pH 7.4, read-out: PPB mouse (converted)", "experimental": "as §1, §2, §3"}, "hERG": {"target": "hERG (Homo sapiens, UniProt Q12809)", "experiment": "Cardiac ion channel MPC selectivity panel", "assay_type": "cell-based"}, "Kv1.5": {"target": "Kv1.5 (Homo sapiens, UniProt P22460)", "sequence (P22460 whole entry)": "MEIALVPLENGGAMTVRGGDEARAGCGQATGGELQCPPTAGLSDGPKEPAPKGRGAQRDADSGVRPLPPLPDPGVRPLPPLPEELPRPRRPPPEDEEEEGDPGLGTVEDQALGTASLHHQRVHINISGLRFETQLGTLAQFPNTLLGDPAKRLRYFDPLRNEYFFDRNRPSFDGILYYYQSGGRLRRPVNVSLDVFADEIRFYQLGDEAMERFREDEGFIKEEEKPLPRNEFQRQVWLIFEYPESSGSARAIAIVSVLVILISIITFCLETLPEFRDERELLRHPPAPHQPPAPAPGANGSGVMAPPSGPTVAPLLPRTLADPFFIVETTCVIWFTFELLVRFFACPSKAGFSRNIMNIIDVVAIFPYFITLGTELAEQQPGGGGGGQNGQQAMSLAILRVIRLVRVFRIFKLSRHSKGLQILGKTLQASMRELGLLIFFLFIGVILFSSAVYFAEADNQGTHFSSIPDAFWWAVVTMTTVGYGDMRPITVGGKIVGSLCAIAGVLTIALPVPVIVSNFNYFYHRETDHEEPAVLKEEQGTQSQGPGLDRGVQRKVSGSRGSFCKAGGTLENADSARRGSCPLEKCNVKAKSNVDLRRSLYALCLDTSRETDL", "experiment": "Cardiac ion channel MPC selectivity panel", "assay_type": "cell-based"}, "Cannabinoid CB1": {"target": "Cannabinoid CB1 (Homo sapiens, UniProt P21554)", "sequence (P21554 whole entry)": "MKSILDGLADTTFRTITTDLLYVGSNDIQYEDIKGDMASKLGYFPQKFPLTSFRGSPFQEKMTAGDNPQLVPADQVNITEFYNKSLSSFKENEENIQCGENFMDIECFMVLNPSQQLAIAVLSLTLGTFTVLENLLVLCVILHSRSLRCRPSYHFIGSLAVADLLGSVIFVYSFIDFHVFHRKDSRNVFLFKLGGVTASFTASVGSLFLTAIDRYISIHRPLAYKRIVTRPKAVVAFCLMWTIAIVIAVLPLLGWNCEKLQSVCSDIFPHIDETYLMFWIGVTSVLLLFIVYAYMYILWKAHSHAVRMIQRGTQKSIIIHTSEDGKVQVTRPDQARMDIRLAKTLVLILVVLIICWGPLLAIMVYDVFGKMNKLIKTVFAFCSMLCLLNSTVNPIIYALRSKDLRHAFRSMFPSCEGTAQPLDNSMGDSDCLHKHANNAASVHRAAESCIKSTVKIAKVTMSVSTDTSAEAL", "experiment": "Eurofins lead profiling screen (radioligand binding)"}, "Opiate μ (OP3, MOP)": {"target": "Opiate μ (OP3, MOP) (Homo sapiens, UniProt P35372)", "experiment": "Eurofins lead profiling screen (radioligand binding)"}, "Adrenergic α2A": {"target": "Adrenergic α2A (Homo sapiens, UniProt P08913)", "sequence (P08913 whole entry)": "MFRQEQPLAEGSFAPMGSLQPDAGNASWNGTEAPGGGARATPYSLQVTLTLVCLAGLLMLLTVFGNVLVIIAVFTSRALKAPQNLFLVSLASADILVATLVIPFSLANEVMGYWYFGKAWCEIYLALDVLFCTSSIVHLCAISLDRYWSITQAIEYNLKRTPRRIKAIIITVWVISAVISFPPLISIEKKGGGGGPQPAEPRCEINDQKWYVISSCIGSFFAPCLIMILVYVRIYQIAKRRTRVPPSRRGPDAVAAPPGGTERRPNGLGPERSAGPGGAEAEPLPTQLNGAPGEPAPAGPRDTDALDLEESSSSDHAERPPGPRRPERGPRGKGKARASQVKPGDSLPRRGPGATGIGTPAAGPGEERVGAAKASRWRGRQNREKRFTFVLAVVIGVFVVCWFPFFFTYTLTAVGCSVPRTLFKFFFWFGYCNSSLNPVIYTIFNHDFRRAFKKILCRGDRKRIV", "experiment": "Eurofins lead profiling screen (radioligand binding)"}, "Dopamine D1": {"target": "Dopamine D1 (Homo sapiens, UniProt P21728)", "sequence (P21728 whole entry)": "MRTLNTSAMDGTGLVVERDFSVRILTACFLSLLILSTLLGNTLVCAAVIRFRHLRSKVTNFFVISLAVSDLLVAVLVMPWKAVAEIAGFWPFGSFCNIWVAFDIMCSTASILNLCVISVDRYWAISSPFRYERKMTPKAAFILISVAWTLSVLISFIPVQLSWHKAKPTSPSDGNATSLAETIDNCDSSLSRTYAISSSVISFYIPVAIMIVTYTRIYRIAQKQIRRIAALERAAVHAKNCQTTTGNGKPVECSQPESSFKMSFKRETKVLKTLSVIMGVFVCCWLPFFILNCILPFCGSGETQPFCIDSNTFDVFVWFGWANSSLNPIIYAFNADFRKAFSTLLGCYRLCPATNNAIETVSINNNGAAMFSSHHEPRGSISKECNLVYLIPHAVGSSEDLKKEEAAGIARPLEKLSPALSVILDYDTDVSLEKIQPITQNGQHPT", "experiment": "Eurofins lead profiling screen (radioligand binding)"}, "[3]": {"target": "Platelet Activating Factor (PAF) (Homo sapiens, UniProt P25105)", "sequence (P25105 whole entry)": "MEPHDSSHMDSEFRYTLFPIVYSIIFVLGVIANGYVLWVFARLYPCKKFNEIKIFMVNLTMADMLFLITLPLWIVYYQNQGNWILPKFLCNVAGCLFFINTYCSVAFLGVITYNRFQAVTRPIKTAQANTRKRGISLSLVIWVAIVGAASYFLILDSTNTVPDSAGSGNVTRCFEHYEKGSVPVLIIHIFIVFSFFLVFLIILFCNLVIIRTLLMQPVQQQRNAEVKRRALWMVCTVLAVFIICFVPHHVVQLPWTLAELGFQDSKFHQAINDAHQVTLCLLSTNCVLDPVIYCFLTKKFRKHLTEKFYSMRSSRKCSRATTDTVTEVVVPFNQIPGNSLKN", "experiment": "Eurofins lead profiling screen (radioligand binding)"}, "[4]": {"system": "GABAA, Flunitrazepam, Central", "experiment": "Eurofins lead profiling screen (radioligand binding)", "set-up": "species or system Rat"}, "Calcium Channel N-Type": {"target": "Calcium Channel N-Type (Rattus norvegicus, UniProt Q02294)", "experiment": "Eurofins lead profiling screen (radioligand binding)"}, "Adrenergic α1D": {"target": "Adrenergic α1D (Homo sapiens, UniProt P25100)", "experiment": "Eurofins lead profiling screen (radioligand binding)"}, "[5]": {"target": "Transporter, Norepinephrine (NET) (Homo sapiens, UniProt P23975)", "sequence (P23975 whole entry)": "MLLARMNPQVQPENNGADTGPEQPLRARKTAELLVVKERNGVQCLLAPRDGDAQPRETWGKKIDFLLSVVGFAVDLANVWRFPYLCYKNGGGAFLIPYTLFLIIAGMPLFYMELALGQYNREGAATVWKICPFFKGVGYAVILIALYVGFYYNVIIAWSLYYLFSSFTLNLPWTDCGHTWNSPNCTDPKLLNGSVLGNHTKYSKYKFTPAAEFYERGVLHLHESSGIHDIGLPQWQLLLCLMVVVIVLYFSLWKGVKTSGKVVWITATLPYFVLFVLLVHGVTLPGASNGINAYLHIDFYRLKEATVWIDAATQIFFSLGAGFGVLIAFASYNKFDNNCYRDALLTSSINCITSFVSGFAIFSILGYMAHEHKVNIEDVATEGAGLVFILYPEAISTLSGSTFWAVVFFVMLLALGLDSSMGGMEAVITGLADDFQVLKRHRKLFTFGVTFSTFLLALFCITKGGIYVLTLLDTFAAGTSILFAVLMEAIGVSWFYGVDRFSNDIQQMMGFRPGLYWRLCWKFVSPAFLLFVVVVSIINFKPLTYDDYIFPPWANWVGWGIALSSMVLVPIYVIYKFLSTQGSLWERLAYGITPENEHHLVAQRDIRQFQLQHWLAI", "experiment": "Eurofins lead profiling screen (radioligand binding)"}, "Potassium Channel [KATP]": {"target": "Potassium Channel [KATP] (Cricetus cricetus, UniProt Q09427)", "experiment": "Eurofins lead profiling screen (radioligand binding)", "set-up": "species or system Hamster"}, "Endothelin ETB": {"target": "Endothelin ETB (Homo sapiens, UniProt P24530)", "experiment": "Eurofins lead profiling screen (radioligand binding)"}, "Estrogen ERα": {"target": "Estrogen ERα (Homo sapiens, UniProt P03372)", "experiment": "Eurofins lead profiling screen (radioligand binding)"}, "Adrenergic α1B": {"target": "Adrenergic α1B (Rattus norvegicus, UniProt P15823)", "sequence (P15823 whole entry)": "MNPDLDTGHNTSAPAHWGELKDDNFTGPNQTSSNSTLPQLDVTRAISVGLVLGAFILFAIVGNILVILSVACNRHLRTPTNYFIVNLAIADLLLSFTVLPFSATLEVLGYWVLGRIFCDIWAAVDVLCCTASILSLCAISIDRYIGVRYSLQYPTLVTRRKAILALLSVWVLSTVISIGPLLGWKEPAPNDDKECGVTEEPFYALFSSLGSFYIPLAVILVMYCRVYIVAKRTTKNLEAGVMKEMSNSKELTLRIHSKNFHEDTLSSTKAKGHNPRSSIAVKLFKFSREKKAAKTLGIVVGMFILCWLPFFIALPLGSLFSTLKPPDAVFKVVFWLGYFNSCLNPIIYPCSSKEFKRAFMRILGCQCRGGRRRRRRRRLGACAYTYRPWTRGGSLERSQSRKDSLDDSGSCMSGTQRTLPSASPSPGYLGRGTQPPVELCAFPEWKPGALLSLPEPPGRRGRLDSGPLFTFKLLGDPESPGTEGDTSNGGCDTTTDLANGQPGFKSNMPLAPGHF", "experiment": "Eurofins lead profiling screen (radioligand binding)"}, "Androgen (Testosterone)": {"target": "Androgen (Testosterone) (Homo sapiens, UniProt P10275)", "sequence (P10275 whole entry)": "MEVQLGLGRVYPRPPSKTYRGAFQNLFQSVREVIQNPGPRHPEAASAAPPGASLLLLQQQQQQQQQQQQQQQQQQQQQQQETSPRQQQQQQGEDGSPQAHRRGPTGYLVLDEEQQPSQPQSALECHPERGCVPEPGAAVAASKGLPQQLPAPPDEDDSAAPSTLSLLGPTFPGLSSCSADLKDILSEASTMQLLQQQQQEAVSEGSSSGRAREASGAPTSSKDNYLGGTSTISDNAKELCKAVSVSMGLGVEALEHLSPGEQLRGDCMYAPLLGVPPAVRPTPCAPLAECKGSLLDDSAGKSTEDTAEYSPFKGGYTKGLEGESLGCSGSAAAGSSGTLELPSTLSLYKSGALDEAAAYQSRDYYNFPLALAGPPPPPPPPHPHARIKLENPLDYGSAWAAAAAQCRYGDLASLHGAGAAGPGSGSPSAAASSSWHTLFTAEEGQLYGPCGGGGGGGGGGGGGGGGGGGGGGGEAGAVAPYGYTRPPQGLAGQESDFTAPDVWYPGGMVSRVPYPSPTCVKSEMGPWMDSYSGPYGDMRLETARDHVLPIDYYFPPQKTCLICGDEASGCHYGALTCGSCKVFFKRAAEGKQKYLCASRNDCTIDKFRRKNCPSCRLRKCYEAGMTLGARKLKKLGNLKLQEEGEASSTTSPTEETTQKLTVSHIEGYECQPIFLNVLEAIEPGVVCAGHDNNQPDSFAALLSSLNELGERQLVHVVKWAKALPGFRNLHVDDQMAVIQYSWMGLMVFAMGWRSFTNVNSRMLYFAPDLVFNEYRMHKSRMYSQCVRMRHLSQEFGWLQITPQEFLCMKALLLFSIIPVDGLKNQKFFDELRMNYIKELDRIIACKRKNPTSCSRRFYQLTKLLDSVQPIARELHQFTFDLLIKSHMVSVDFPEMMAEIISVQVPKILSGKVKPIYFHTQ", "experiment": "Eurofins lead profiling screen (radioligand binding)"}, "Serotonin (5-HT3)": {"target": "Serotonin (5-HT3) (Homo sapiens, UniProt P46098)", "experiment": "Eurofins lead profiling screen (radioligand binding)"}}}
{"smiles": "Cc1cc(C#Cc2ccc(F)cc2)cnc1NC(=O)c1cc(NC(=O)OC(C)(C)C)ccc1Cl", "note": "[Compound 14c]", "values": [{"measurement": "IC50", "setting": "TREK-1", "value": 67, "unit": "nM"}, {"measurement": "solubility", "setting": "Aqueous solubility", "value": "< 5", "unit": "µM"}, {"measurement": "fraction unbound at 6 h, 5 µM", "setting": "[1]", "value": 0.006}, {"measurement": "Ki", "setting": "Adenosine A3", "value": 480, "unit": "nM"}, {"measurement": "Ki", "setting": "Sodium Channel, Site 2", "value": 650, "unit": "nM"}, {"measurement": "% at 10 μM, Nav1.5", "setting": "Nav1.5", "value": "< 50", "unit": "%"}, {"measurement": "% at 10 μM, HNC4", "setting": "HNC4", "value": "< 50", "unit": "%"}, {"measurement": "fraction unbound at 6 h, 5 µM", "setting": "[2]", "value": 0.016}, {"measurement": "% at 10 μM, hERG", "setting": "hERG", "value": "< 50", "unit": "%"}, {"measurement": "% at 10 μM, Kv1.5", "setting": "Kv1.5", "value": "< 50", "unit": "%"}]}
{"smiles": "O=C(NCc1ccc(OC(F)(F)F)cc1F)c1ccc2ncnn2c1", "note": "[ONO-2920632]", "values": [{"measurement": "inhibition at 10 µM", "setting": "Cannabinoid CB1", "value": -23, "unit": "%"}, {"measurement": "inhibition at 10 µM", "setting": "Opiate μ (OP3, MOP)", "value": 15, "unit": "%"}, {"measurement": "inhibition at 10 µM", "setting": "Adrenergic α2A", "value": 36, "unit": "%"}, {"measurement": "inhibition at 10 µM", "setting": "Dopamine D1", "value": 8, "unit": "%"}, {"measurement": "inhibition at 10 µM", "setting": "[3]", "value": 26, "unit": "%"}, {"measurement": "inhibition at 10 µM", "setting": "Adenosine A3", "value": 84, "unit": "%"}, {"measurement": "% Inhibition at 10 µM", "setting": "[4]", "value": -9, "unit": "%"}, {"measurement": "inhibition at 10 µM", "setting": "Calcium Channel N-Type", "value": 4, "unit": "%"}, {"measurement": "inhibition at 10 µM", "setting": "Adrenergic α1D", "value": 26, "unit": "%"}, {"measurement": "inhibition at 10 µM", "setting": "[5]", "value": 29, "unit": "%"}, {"measurement": "% Inhibition at 10 µM", "setting": "Sodium Channel, Site 2; 10 µM", "value": 84, "unit": "%"}, {"measurement": "inhibition at 10 µM", "setting": "Potassium Channel [KATP]", "value": -6, "unit": "%"}, {"measurement": "inhibition at 10 µM", "setting": "Endothelin ETB", "value": -6, "unit": "%"}, {"measurement": "inhibition at 10 µM", "setting": "Estrogen ERα", "value": 8, "unit": "%"}, {"measurement": "inhibition at 10 µM", "setting": "Adrenergic α1B", "value": 11, "unit": "%"}, {"measurement": "inhibition at 10 µM", "setting": "Androgen (Testosterone)", "value": 7, "unit": "%"}, {"measurement": "inhibition at 10 µM", "setting": "Serotonin (5-HT3)", "value": -4, "unit": "%"}]}
